Test results reported in patent publication US11712438B2, “Phenyl derivatives as PGE2 receptor modulators” (IDORSIA PHARMACEUTICALS LTD, priority 2017, dated 2023).
pIC50: −log10 of the molar value.

Tests used:
Assay in all cases: cell-based
[1] = target: PTRGER4 (EP4) (Homo sapiens, UniProt P35408);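 note: assay plate preincubated 15 min at 37 °C, after which PGE2 was added at 20 nM final and incubation continued 120 min at 37 °C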
[2] = target: EP2 (Homo sapiens, UniProt P43116);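 note: SF295 glioblastoma cells with endogenous EP2 only, PGE2-stimulated cAMP accumulation read by HTRF competitive immunoassay, 45 min pre-incubation then 30 min at room temperature, IBMX in buffer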
[3] = target: EP4 (Homo sapiens, UniProt P35408);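 note: inhibition of PGE2-evoked (6 nM) cAMP accumulation in BT549 breast cancer cells endogenously expressing EP4, cAMP read by HTRF competitive immunoassay after 30 min at room temperature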
EP4, sequence (P35408 whole entry): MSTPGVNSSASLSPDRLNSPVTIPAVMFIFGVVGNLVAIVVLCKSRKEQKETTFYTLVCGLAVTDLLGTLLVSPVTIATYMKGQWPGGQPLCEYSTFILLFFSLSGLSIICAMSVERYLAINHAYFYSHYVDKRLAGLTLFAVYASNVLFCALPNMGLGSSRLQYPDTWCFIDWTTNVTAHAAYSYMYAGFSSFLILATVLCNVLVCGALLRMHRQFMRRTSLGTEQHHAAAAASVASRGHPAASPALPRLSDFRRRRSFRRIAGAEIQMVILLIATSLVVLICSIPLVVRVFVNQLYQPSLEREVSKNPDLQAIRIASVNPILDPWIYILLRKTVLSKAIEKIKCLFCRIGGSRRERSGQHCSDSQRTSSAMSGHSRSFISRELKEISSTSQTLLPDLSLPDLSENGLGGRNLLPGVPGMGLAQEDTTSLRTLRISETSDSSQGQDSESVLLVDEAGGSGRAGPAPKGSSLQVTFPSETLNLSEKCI

EP2, sequence (P43116 whole entry): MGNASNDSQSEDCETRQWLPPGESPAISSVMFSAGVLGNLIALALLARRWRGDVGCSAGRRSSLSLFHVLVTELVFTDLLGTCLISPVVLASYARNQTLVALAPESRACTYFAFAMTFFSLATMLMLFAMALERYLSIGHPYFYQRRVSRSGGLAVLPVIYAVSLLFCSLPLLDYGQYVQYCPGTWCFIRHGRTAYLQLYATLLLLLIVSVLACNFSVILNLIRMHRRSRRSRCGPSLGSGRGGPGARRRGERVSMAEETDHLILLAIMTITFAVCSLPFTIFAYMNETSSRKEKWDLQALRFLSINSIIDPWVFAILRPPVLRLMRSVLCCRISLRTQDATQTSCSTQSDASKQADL
PTRGER4 (EP4), sequence (P35408 whole entry): as the sequence (P35408 whole entry) above

| pIC50 [1] | pIC50 [2] | pIC50 [3] | SMILES |
| --- | --- | --- | --- |
| 7.05 | 6.27 | 7.48 | CCOc1cc(-c2cc(NCCc3ccc(OC)c(Br)c3)ncn2)sc1C(=O)O [Example 74, 5-{6-[2-(3-Bromo-4-methoxy-phenyl)-ethylamino]-pyrimidin-4-yl}-3-ethoxy-thiophene-2-carboxylic acid] |
| 6.86 | 6.42 | 7.09 | CCOc1cc(-c2cc(NCCc3ccc(OC)cc3)ncn2)sc1C(=O)O [Example 60, 3-Ethoxy-5-{6-[2-(4-methoxy-phenyl)-ethylamino]-pyrimidin-4-yl}-thiophene-2-carboxylic acid] |
| 6.69 | 6.39 | 6.97 | CCOc1cc(-c2cc(NCCc3cccc(Br)c3)ncn2)sc1C(=O)O [Example 79, 5-{6-[2-(3-Bromo-phenyl)-ethylamino]-pyrimidin-4-yl}-3-ethoxy-thiophene-2-carboxylic acid] |
| 6.44 | 6.15 | 6.79 | CCOc1cc(-c2cc(NCCc3cccc(C(F)(F)F)c3)ncn2)sc1C(=O)O [Example 61, 3-Ethoxy-5-{6-[2-(3-trifluoromethyl-phenyl)-ethylamino]-pyrimidin-4-yl}-thiophene-2-carboxylic acid] |
| 7.47 | 6.20 | 6.63 | CCOc1cc(-c2cc(NCCc3ccc(Br)cc3)ncn2)sc1C(N)=O [Example 128, 5-{6-[2-(4-Bromo-phenyl)-ethylamino]-pyrimidin-4-yl}-3-ethoxy-thiophene-2-carboxylic acid amide] |
| 5.94 | 6.53 | 6.78 | CCOc1cc(-c2cc(NCCc3ccc(C)cc3C)ncn2)sc1C(=O)O [Example 57, 5-{6-[2-(2,4-Dimethyl-phenyl)-ethylamino]-pyrimidin-4-yl}-3-ethoxy-thiophene-2-carboxylic acid] |
| 6.26 | 6.50 | 6.90 | CCOc1cc(-c2cc(NCCc3cccc(F)c3)ncn2)sc1C(=O)O [Example 81, 3-Ethoxy-5-{6-[2-(3-fluoro-phenyl)-ethylamino]-pyrimidin-4-yl}-thiophene-2-carboxylic acid] |
| 8.10 | 6.04 | 7.72 | CCOc1cc(-c2cc(NCCc3ccc(OC)c(Cl)c3)ncn2)sc1-c1noc(=O)[nH]1 [Example 122, 3-(5-{6-[2-(3-Chloro-4-methoxy-phenyl)-ethylamino]-pyrimidin-4-yl}-3-ethoxy-thiophen-2yl)-[1,2,4]oxadiazol-5(4H)-one] |
| 7.35 | 6.43 | 6.61 | CCOc1cc(-c2cc(NCCc3ccc(Br)cc3)ncn2)sc1C(=N)NO [Example 129, 5-{6-[2-(4-Bromo-phenyl)-ethylamino]-pyrimidin-4-yl}-3-ethoxy-N-hydroxy-thiophene-2-carboxamidine] |
| 6.58 | 6.15 | 6.61 | CCOc1cc(-c2cc(NCCc3cc(OC)cc(OC)c3)ncn2)sc1C(=O)O [Example 67, 5-{6-[2-(3,5-Dimethoxy-phenyl)-ethylamino]-pyrimidin-4-yl}-3-ethoxy-thiophene-2-carboxylic acid] |

The next lines start with the compound.

| SMILES | pIC50 [1] | pIC50 [2] | pIC50 [3] |
| --- | --- | --- | --- |
| CCOc1cc(-c2cc(NCCc3ccc(Br)cc3OC(F)(F)F)ncn2)sc1-c1noc(=O)[nH]1 [Example 84, 3-(5-{6-[2-(4-Bromo-2-trifluoromethoxy-phenyl)-ethylamino]-pyrimidin-4-yl}-3-ethoxy-thiophen-2yl)-[1,2,4]oxadiazol-5(4H)-one] | 6.94 | 6.45 | 6.78 |
| CCOc1cc(-c2cc(NCCc3ccc(C)c(C)c3)ncn2)sc1-c1noc(=O)[nH]1 [Example 83, 3-(5-{6-[2-(3,4-Dimethyl-phenyl)-ethylamino]-pyrimidin-4-yl}-3-ethoxy-thiophen-2-yl)-[1,2,4]oxadiazol-5(4H)-one] | 7.85 | 6.68 | 7.89 |
| Oc1cc(-c2ccc(-c3cc(NCCc4c(F)cc(Br)cc4F)ncn3)cc2)on1 [Example 33, 5-(4-{6-[2-(4-Bromo-2,6-difluoro-phenyl)-ethylamino]-pyrimidin-4-yl}-phenyl)-isoxazol-3-ol] | 6.81 | 5.95 | 6.83 |
| CCOc1cc(-c2cc(NCCc3ccc(Br)cc3N3CCCC3)ncn2)sc1-c1noc(=O)[nH]1 [Example 112, 3-(5-{6-[2-(4-Bromo-2-pyrrolidin-1-yl-phenyl)-ethylamino]-pyrimidin-4-yl}-3-ethoxy-thiophen-2yl)-[1,2,4]oxadiazol-5(4H)-one] | 7.10 | 6.05 | 6.72 |
| CCOc1cc(-c2cc(NCCc3ccc(Br)cc3)ncn2)sc1-c1noc(OC)n1 [Example 140, [2-(4-Bromo-phenyl)-ethyl]-{6-[4-ethoxy-5-(5-methoxy-[1,2,4]oxadiazol-3-yl)-thiophen-2-yl]-pyrimidin-4-yl}-amine] | 7.92 | 6.46 | 6.66 |
| CCOc1cc(-c2cc(NCCc3ccc(Br)cc3CC)ncn2)sc1-c1noc(=O)[nH]1 [Example 104, 3-(5-{6-[2-(4-Bromo-2-ethyl-phenyl)-ethylamino]-pyrimidin-4-yl}-3-ethoxy-thiophen-2-yl)-[1,2,4]oxadiazol-5(4H)-one] | 7.00 | 6.02 | 6.40 |
| CCOc1cc(-c2cc(NCCc3ccc(Br)cc3)ncn2)sc1Cc1noc(=O)[nH]1 [Example 137, 3-(5-{6-[2-(4-Bromo-phenyl)-ethylamino]-pyrimidin-4-yl}-3-ethoxy-thiophen-2-ylmethyl)-[1,2,4]oxadiazol-5(4H)-one] | 6.39 | 6.43 | 6.02 |
| CCOc1cc(-c2cc(NCCc3ccc(C(F)(F)F)cc3F)ncn2)sc1-c1noc(=O)[nH]1 [Example 93, 3-(3-Ethoxy-5-{6-[2-(2-fluoro-4-trifluoromethyl-phenyl)-ethylamino]-pyrimidin-4-yl}-thiophen-2yl)-[1,2,4]oxadiazol-5(4H)-one] | 8.52 | 6.29 | 8.22 |
| CCOc1cc(-c2cc(NCCc3ccc(Br)cc3)ncn2)sc1-c1noc(=S)[nH]1 [Example 132, 3-(5-{6-[2-(4-Bromo-phenyl)-ethylamino]-pyrimidin-4-yl}-3-ethoxy-thiophen-2-yl)-[1,2,4]oxadiazole-5(4H)-thione] | 8.22 | 6.23 | 7.22 |
| Brc1ccc(CCNc2cc(-c3ccc(Cc4nnn[nH]4)s3)ncn2)cc1 [Example 288, [2-(4-Bromo-phenyl)-ethyl]-{6-[5-(1H-tetrazol-5-ylmethyl)-thiophen-2-yl]-pyrimidin-4-yl}-amine] | 5.92 | 6.13 | 6.11 |
| CCOc1cc(-c2cc(NCCc3ccc(Cl)cc3NC)ncn2)sc1-c1noc(=O)[nH]1 [Example 91, 3-(5-{6-[2-(4-Chloro-2-methylamino-phenyl)-ethylamino]-pyrimidin-4-yl}-3-ethoxy-thiophen-2yl)-[1,2,4]oxadiazol-5(4H)-one] | 7.38 | 5.55 | 6.47 |
| CCOc1cc(-c2cc(NCCc3cc(Cl)ccc3C#N)ncn2)sc1-c1noc(=O)[nH]1 [Example 160, 4-Chloro-2-(2-{6-[4-ethoxy-5-(5-oxo-4,5-dihydro-[1,2,4]oxadiazol-3-yl)-thiophen-2-yl]-pyrimidin-4-ylamino}-ethyl)-benzonitrile] | 6.87 | 6.50 | 6.59 |
| Cc1ccc(CCNc2cc(-c3ccc(C(=O)O)c(OC4CCC4)c3)ncn2)cc1C [Example 20, 2-Cyclobutoxy-4-{6-[2-(3,4-dimethyl-phenyl)-ethylamino]-pyrimidin-4-yl}-benzoic acid] | 6.35 | 6.30 | 6.24 |
| CCOc1cc(-c2cc(NCCc3ccc(Br)cc3)ncn2)sc1CC(N)=O [Example 287, 2-(5-{6-[2-(4-Bromo-phenyl)-ethylamino]-pyrimidin-4-yl}-3-ethoxy-thiophen-2-yl)-acetamide] | 6.50 | 6.06 | 5.92 |
| COc1cccc(CCNc2cc(-c3cc(C(F)(F)F)c(C(=O)O)s3)ncn2)c1 [Example 63, 5-{6-[2-(3-Methoxy-phenyl)-ethylamino]-pyrimidin-4-yl}-3-trifluoromethyl-thiophene-2-carboxylic acid] | 6.63 | 6.19 | 6.98 |
| CCOc1cc(-c2cc(NCCc3ccc(N(C)C)cc3F)ncn2)sc1-c1noc(=O)[nH]1 [Example 161, 3-(5-{6-[2-(4-Dimethylamino-2-fluoro-phenyl)-ethylamino]-pyrimidin-4-yl}-3-ethoxy-thiophen-2-yl)[1,2,4]oxadiazol-5(4H)-one] | 8.00 | 6.15 | 7.40 |
| CCOc1cc(-c2cc(NCCc3ccc(Br)cc3)ncn2)sc1CCc1noc(=O)[nH]1 [Example 144, 3-[2-(5-{6-[2-(4-Bromo-phenyl)-ethylamino]-pyrimidin-4-yl}-3-ethoxy-thiophen-2-yl)-ethyl]-[1,2,4]oxadiazol-5(4H)-one] | 6.90 | 6.00 | 6.36 |
| NC(=O)Cc1ccc(-c2cc(NCCc3ccc(Br)cc3)ncn2)s1 [Example 158, 2-(5-{6-[2-(4-Bromo-phenyl)-ethylamino]-pyrimidin-4-yl}-thiophen-2-yl)-acetamide] | 5.64 | 6.19 | 6.04 |
| O=c1nc(-c2ccc(-c3cc(NCCc4c(F)cc(Br)cc4F)ncn3)cc2)o[nH]1 [Example 34, 5-(4-(6-((4-Bromo-2,6-difluorophenethyl)amino)pyrimidin-4-yl)phenyl)-[1,2,4]oxadiazol-3(2H)-one] | 6.58 | 6.36 | 6.17 |
| CCOc1cc(-c2cc(NCCc3ccc(Br)cc3)ncn2)sc1-c1noc(N)n1 [Example 139, {6-[5-(5-Amino-[1,2,4]oxadiazol-3-yl)-4-ethoxy-thiophen-2-yl]-pyrimidin-4-yl}-[2-(4-bromo-phenyl)-ethyl]-amine] | 8.22 | 6.54 | 6.83 |
